Laboratory results: patent publication US5726302A, “Water soluble adenosine kinase inhibitors” (Gensia Inc., priority 1995, dated 1998)
Where a name gives a salt, the structure may show the parent alone. Values belong to the molecule of their own block, whether it stands above or below them.

How the values were obtained:
[1] = Water solubility; type: physicochemical
Protocol: The sample was sonicated for a period of up to 20 minutes. If a solution was not obtained, further solvent was added and the process was repeated until a clear solution was obtained, and the results were recorded. Solutions used were 50 mM potassium biphthalate (pH 4); 100 mM glycine (pH 9); 25 mM sodium carbonate and 25 mM sodium bicarbonate (pH 10); or deionized water (DI).

[2] = molecular target: partially purified pig heart adenosine kinase (Sus scrofa, UniProt A0A5G2R0F5); assay: biochemical; details: pig heart adenosine kinase; 0.5 μM adenosine, pH 7.0, 20 minutes at 37° C; read-out: AK Inhibition (IC50)
Protocol: Adenosine kinase activity was measured essentially as described by Yamada et al Biochim. Biophys. Acta 660, 36-43 (1988) with a few minor modifications. Assay mixtures contained 50 mM TRIS-maleate buffer, pH 7.0, 0.1% BSA, 1 mM ATP 1 mM MgCl2, 0.5 μM [U-^14 C] adenosine (400-600 mCi/mmol) and varying duplicate concentrations of inhibitor. The reactions were initiated by addition of approximately 0.1 μU partially purified pig heart adenosine kinase, where one unit is defined as that amount of enzyme required to phosphorylate 1 μmol adenosine per minute. The reactions were incubated for 20 minutes at 37° C. The assay was quenched upon spotting 30 μL aliquots onto 2 cm^2 pieces of Whatman DE81 anion exchange paper. The paper squares were washed for 3 minutes in 6 L distilled/deionized water to remove the unreacted adenosine. […] The amount of ^14 C-AMP was quantified by scintillation counting.

[3] = test system: male SA rats; assay: Anticonvulsant activity, maximal electroshock (MES) model; type: in vivo; details: Rattus norvegicus, 1 h
Protocol: The anticonvulsant activity of the tested compounds was evaluated in male SA rats (100-150 g, Simonsen) using the maximal electroshock (MES) model described in Swinyard et al., Antiepileptic Drugs, 3d Ed. at 85-102 (Levy, et al., eds.), N.Y.: Raven Press (1989). The rats were maintained on a 12/12 light/dark cycle in temperature controlled facilities with free access to food and water. For p.o. administration, the animals are fasted overnight, prior to the experiment. One hour prior to seizure testing, the animals were injected interperitoneally (ip) or orally (per os, […]) with one of various doses of test compound dissolved in DMSO or PEG 400.
This endpoint was expressed as the percentage of animals in which the response was inhibited.

[4] = test system: Rats; assay: Anti-inflammatory activity, carrageenan paw; type: in vivo, rat; details: 10 mg/kg, swelling after 3 hours
Protocol: Carrageenan (Type λ) was suspended in sterile PBS at 1% (w/v), autoclaved for 30 minutes, and stored at room temperature. Rats were pretreated with vehicle or AK inhibitor (10 mg/kg) by oral gavage or i.p. administration and the volume of the left hind paw was measured using a water displacement plethysmometer (Stoelting Co., Wood Dale, Ill.). One hour after oral treatment or 30 minutes after i.p. treatment, the rats were briefly anesthetized, and 0.1 ml of the carrageenan solution was injected subcutaneously into the planar surface of the left hind paw. The ensuing paw swelling was measured by plethysmometry after 3 hours. The paw volume in millileters was subtracted from the pre-injection paw volume. Data are presented as the percent inhibition of paw swelling in AK inhibitor treated animals, compared to vehicle treated control animals.

[5] = test system: male SA rats; assay: Analgesic activity, tail flick; type: in vivo; details: Rattus norvegicus, ip
[6] = test system: male SA rats; assay: Analgesic activity, hot plate; type: in vivo; details: Rattus norvegicus, ip
[7] = test system: mice; details: cited from earlier work
[8] = test system: Female SA rats; assay: Liver toxicity assay; type: in vivo, rat; details: iv infusion 2 x 37.5 μmole/kg, 12 hours after second dose
Protocol: Female SA rats (150-200 g) are anesthetized with halothane and cannulated via the internal jugular vein. The animals are allowed to recover for 3 days. At this time, 37.5 μmole/kg of an AK inhibitor is dissolved in 50% PEG400 and infused through the jugular catheter over 20 minutes. Twelve hours later, an additional 37.5 μmole/kg is infused over 20 minutes (total dose=75 μmole/kg). […] Liver enzymes (serum glutamic-oxaloacetic transaminase (SGOT), serum glutamic-pyruvic transaminase (SGPT), alkaline phosphatase) and total bilirubin in the serum samples are determined by a commercial laboratory.

[9] = test system: anesthetized rats; details: cited from earlier work
[10] = po, one hour after dosing, fasted
[11] = ip, 30 minutes before carrageenan
[12] = po, one hour before carrageenan
[13] = pH 4 (50 mM potassium biphthalate)

partially purified pig heart adenosine kinase, sequence (A0A5G2R0F5 1-362): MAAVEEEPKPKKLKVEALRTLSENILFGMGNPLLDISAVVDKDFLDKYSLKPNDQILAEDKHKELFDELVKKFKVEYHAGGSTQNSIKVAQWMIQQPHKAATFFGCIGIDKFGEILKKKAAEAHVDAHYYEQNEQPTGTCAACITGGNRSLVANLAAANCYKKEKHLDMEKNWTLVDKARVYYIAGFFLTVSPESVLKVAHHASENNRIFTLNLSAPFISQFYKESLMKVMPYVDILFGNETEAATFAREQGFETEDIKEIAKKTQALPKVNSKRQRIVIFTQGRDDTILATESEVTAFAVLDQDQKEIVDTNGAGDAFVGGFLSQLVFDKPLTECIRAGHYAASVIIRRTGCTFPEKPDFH

Compound: C[C@H]1O[C@@H](n2cc(-c3ccccc3)c3c(Nc4ccc(NS(=O)(=O)C(F)(F)F)cc4)ncnc32)[C@H](O)[C@@H]1O [Compound 8, 4-N-(4-N-trifluoromethanesulfonylaminophenyl)amino-5-phenyl-7-(5-deoxy-1-β-D-ribofuranosyl) pyrrolo(2,3-d)pyrimidine]
solubility ([1]; sodium carbonate/sodium bicarbonate buffer, pH 10 (25 mM sodium carbonate and 25 mM sodium bicarbonate)): > 1000 µg/mL

Compound: CC(=O)NS(=O)(=O)c1ccc(Nc2ncnc3c2c(-c2ccccc2)cn3[C@@H]2O[C@H](C)[C@@H](O)[C@H]2O)cc1 [Compound 40]
IC50 [2]: 3000 nM | ED50 ([3]; ip): > 5 mg/kg | solubility ([1]; pH 9 (100 mM glycine)): > 1000 µg/mL

Compound: CCN(CC)CCNCCc1ccc(Nc2ncnc3c2c(-c2ccccc2)cn3[C@@H]2O[C@H](C)[C@@H](O)[C@H]2O)cc1 [Compound 5, 4-N[2-(2-N,N-diethylaminoethyleneamino)ethylphenyl]amino-5-phenyl-7-(5-deoxy-β-D-ribofuranosyl)pyrrolo[2,3-d]pyrimidine]
IC50 [2]: 1 nM | Carrageenan Paw (% inhibition) of paw swelling [4, 11]: -3.4% | Carrageenan Paw (% inhibition) of paw swelling [4, 12]: 4.1% | solubility ([1]; deionized water (DI)): > 5000 µg/mL

Compound: CCN(CC)CCc1ccc(Nc2ncnc3c2c(-c2ccccc2)cn3[C@@H]2O[C@H](C)[C@@H](O)[C@H]2O)cc1 [Compound 6, 4-N[2-N,N-diethylaminoethylphenyl]amino-5-phenyl-7-(5-deoxy-β-D-ribofuranosyl)pyrrolo[2,3-d]pyrimidine]
IC50 [2]: 1 nM | solubility [1, 13]: > 1000 µg/mL

Compound: C[C@H]1O[C@@H](n2cc(-c3ccccc3)c3c(Nc4ccc(CCN5CCOCC5)cc4)ncnc32)[C@H](O)[C@@H]1O [Compound 3, 4-N[2-(4-morpholino)ethylphenyl]amino-5-phenyl-7-(5-deoxy-β-D-ribofuranosyl)pyrrolo[2,3-d]pyrimidine]
IC50 [2]: 2 nM | ED50 [3, 10]: > 40 mg/kg | solubility [1, 13]: > 1000 µg/mL

Compound: C[C@H]1O[C@@H](n2cc(I)c3c(NCc4ccncc4)ncnc32)[C@H](O)[C@@H]1O [Compound 42, 4-N-(4-pyridylmethylamino)-5-iodo-7-(5-deoxy-1-β-D-ribofuranosyl)pyrrolo[2,3-d]pyrimidine]
ED50 ([3]; ip): 2 mg/kg

Compound: C[C@H]1O[C@@H](n2cc(I)c3c(N)ncnc32)[C@H](O)[C@@H]1O [REF. A]
general flaccidity (skeletal muscle relaxation) [7]: pronounced general flaccidity | hypothermia [7]: hypothermia | spontaneous locomotor activity [7]: much-reduced spontaneous locomotor activity | Alkaline Phosphatase [8]: 163 IU/L | SGOT [8]: 508 IU/L | SGPT [8]: 76 IU/L | Total Bilirubin [8]: 0.76 mg/dL | blood pressure [9]: decrease blood pressure | heart rate [9]: decrease blood pressure and heart rate

Compound: C[C@H]1O[C@@H](n2cc(-c3ccccc3)c3c(Nc4ccc(CCN5CCNCC5)cc4)ncnc32)[C@H](O)[C@@H]1O [Compound 4, 4-N[2-(1-piperazino)ethylphenyl]amino-5-phenyl-7-(5-deoxy-β-D-ribofuranosyl)pyrrolo[2,3-d]pyrimidine]
Carrageenan Paw (% inhibition) of paw swelling [4, 11]: 39.9% | Carrageenan Paw (% inhibition) of paw swelling [4, 12]: 2.5% | solubility [1, 13]: > 1000 µg/mL

Compound: NC[C@H]1O[C@@H](n2nc(Br)c3c(N)ncnc32)[C@H](O)[C@@H]1O [REF. B, 4amino-1-(5-amino-5-deoxy-1-D-ribofuranosyl)-3-bromopyrazolo[3,4d]pyrimidne HCL]
Alkaline Phosphatase [8]: 113 IU/L | SGOT [8]: 100 IU/L | SGPT [8]: 41 IU/L | Total Bilirubin [8]: 0.30 mg/dL

Second part, led by results:

water solubility ([1]; pH suitable for i.v. administration (e.g. pH 4 to 10)): less than 20 μg/ml
Compound: C[C@H]1O[C@@H](n2cc(-c3ccccc3)c3c(Nc4ccccc4)ncnc32)[C@H](O)[C@@H]1O [5-phenyl-4-N-phenylamino-7-(5-deoxy-1-β-D-ribofuranosyl)pyrrolo[2,3-d]pyrimidine, reference compound]

IC50 [2]: 67 nM
Compound: C[C@H]1O[C@@H](n2cc(-c3ccccc3)c3c(NCc4ccncc4)ncnc32)[C@H](O)[C@@H]1O [Compound 49, 4-N-(4-pyridylmethyl)amino-5-phenyl-7-(5-deoxy-1-β-D-ribofuranosyl)-pyrrolo[2,3-d]pyrimidine]
ED50 [3, 10]: 40 mg/kg

IC50 [2]: 220 nM
Compound: OC[C@@H]1O[C@@H](n2cc(I)c3c(NCc4ccccn4)ncnc32)[C@H](O)[C@@H]1O [Compound 46, 4-N-(2-pyridylmethyl)amino-5-iodo-7-(α-L-lyxofuranosyl)pyrrolo(2,3-d)pyrimidine]

IC50 [2]: 70 nM
Compound: C[C@H]1O[C@@H](n2cc(I)c3c(NCc4ccccn4)ncnc32)[C@H](O)[C@@H]1O [Compound 41, 4-N-(2-Pyridylmethylamino)-5-iodo-7-(5-deoxy-1 -β-D-ribofuranosyl)pyrrolo[2,3-d]pyrimidine]
ED50 [5]: < 1 mg/kg | Carrageenan Paw (% inhibition) of paw swelling [4, 11]: 84.8% | Carrageenan Paw (% inhibition) of paw swelling [4, 12]: 90.6% | ED50 [6]: 1.2 mg/kg

IC50 [2]: 300 nM
Compound: C[C@H]1O[C@@H](n2cc(-c3cccnc3)c3c(NCc4ccccn4)ncnc32)[C@H](O)[C@@H]1O [Compound 48, 4-N-(2-pyridylmethyl)amino-5-(3-pyridino)-7-(5-deoxy-1-β-D-ribofuranosyl)pyrrolo[2,3-d]pyrimidine]

IC50 [2]: 5 nM
Compound: C[C@H]1O[C@@H](n2cc(-c3ccccc3)c3c(Nc4ccc(C(N)=NO)cc4)ncnc32)[C@H](O)[C@@H]1O [Compound 37, 4-N-(4-amidoximephenyl)amino-5-phenyl-7-(5-deoxy-1-β-D-ribofuranosylpyrrolo[2,3-d]pyrimidine hydrochloride]

solubility [1, 13]: > 1000 µg/mL
Compound: C[C@H]1O[C@@H](n2cc(-c3ccccc3)c3c(Nc4ccc(CCN)cc4)ncnc32)[C@H](O)[C@@H]1O [Compound 22, 4-N-(2-Aminoethylphenyl)amino-5-phenyl-7-(5-deoxy-β-D-ribofuranosyl)pyrrolo[2,3-d]pyrimidine]
Carrageenan Paw (% inhibition) of paw swelling [4, 11]: 31.6% | Carrageenan Paw (% inhibition) of paw swelling [4, 12]: 12.4%

IC50 [2]: 55 nM
Compound: C[C@H]1O[C@@H](n2cc(-c3cccnc3)c3c(Nc4ccccc4)ncnc32)[C@H](O)[C@@H]1O [Compound 47, 4-N-Phenylamino-5-(3-pyridino)-7-(5-deoxy-1-β-D-ribofuranosyl) pyrrolo[2,3-d]pyrimidine]
Carrageenan Paw (% inhibition) of paw swelling [4, 11]: -4.4% | Carrageenan Paw (% inhibition) of paw swelling [4, 12]: 9.8%

IC50 [2]: 1 nM | solubility [1, 13]: > 1000 µg/mL
Compound: C[C@H]1O[C@@H](n2cc(-c3ccccc3)c3c(Nc4ccc(CCN(C)C)cc4)ncnc32)[C@H](O)[C@@H]1O [Compound 7, 4-N[2-N,N-dimethylaminoethylphenyl]amino-5-phenyl-7-(5-deoxy-β-D-fibofuranosyl)pyrrolo[2,3-d]pyrimidine]
Carrageenan Paw (% inhibition) of paw swelling [4, 11]: 19.0% | Carrageenan Paw (% inhibition) of paw swelling [4, 12]: 7.7%

IC50 [2]: 500 nM
Compound: C[C@H]1O[C@@H](n2cc(I)c3c(NCc4nc5ccccc5[nH]4)ncnc32)[C@H](O)[C@@H]1O [Compound 45, 4-N-(2-benzimidazolylmethyl)amino-5-iodo-7-(5-deoxy-1-β-D-ribofuranosyl) pyrrolo[(2,3-d)]pyrimidine]

IC50 [2]: 120 nM
Compound: C[C@H]1O[C@@H](n2cc(I)c3c(NCc4cccnc4)ncnc32)[C@H](O)[C@@H]1O [Compound 44, 4-N-(3-pyridylmethylamino)-5-iodo-7-(5-deoxy-1-β-D-ribofuranosyl)pyrrolo[2,3-d]pyrimidine]
